Measurements published in ChEMBL document CHEMBL5614413, “Design, synthesis and biological evaluation of amphiphilic benzopyran derivatives as potent antibacterial agents against multidrug-resistant bacteria” (Eur J Med Chem, 2024).
≈ marks a conversion by molar mass, not a printed value. Calls of active or inactive are those of the source. The rule behind the calls is not given here.

Assays:
Staphylococcus aureus [1] = experiment: (§1) Antibacterial activity against methicillin-resistant Staphylococcus aureus ATCC 43300 infected in sepsis mouse model assessed as reduction in number of surviving bacterial colonies in kidney at 5 mg/kg pre-infected with bacteria for 1 hrs followed by continuous compound administration at 12 hrs intervals for 2 days relative to control; type: functional; settings: time 2 day
Staphylococcus aureus [2] = experiment: as §1, with “in” for “in number of surviving”, “load” for “colonies”, “blood” for “kidney”, “(reference value: 3.69 log10CFU/ml)” for “relative to control”; type: functional; settings: time 2 day
Cell membrane [3] = experiment: Induction of cytoplasmic membrane depolarization in methicillin-resistant Staphylococcus aureus ATCC 43300 assessed as increase in fluorescence intensity at 2 microg/ml by DiSC3(5) dye-based fluorescence assay; type: cell membranes; settings: dose 2.0 µg/ml
Pseudomonas aeruginosa = experiment: Antibacterial activity against penicillin-susceptible Pseudomonas aeruginosa ATCC 27853; type: functional
Staphylococcus aureus [4] = experiment: as §1, with “liver” for “kidney”; type: functional; settings: time 2 day
Staphylococcus aureus [5] = experiment: Inhibition of biofilm formation in methicillin-resistant Staphylococcus aureus ATCC 43300 at 16 microg/ml relative to control; type: functional
[6] = test system: Staphylococcus epidermidis; experiment: Antibacterial activity erythromycin-susceptible Staphylococcus epidermidis ATCC 12228; type: functional
Cell membrane [7] = experiment: Disruption of cell membrane in methicillin-resistant Staphylococcus aureus ATCC 43300 assessed as appearance of broken surface by scanning electron microscopic analysis; type: cell membranes
Cell membrane [8] = experiment: Disruption of cell membrane in methicilin-resistant Staphylococcus aureus ATCC 43300 assessed as appearance of wrinkled cell membrane by scanning electron microscopic analysis; type: cell membranes
Staphylococcus aureus [9] = experiment: Bactericidal activity against methicillin-resistant Staphylococcus aureus ATCC 43300 assessed as bacterial killing at 16 microg/ml measured after 8 hrs by time-kill kinetics analysis relative to control; type: functional; settings: dose 16 µg/ml
Staphylococcus aureus [10] = experiment: as §1, with “in” for “in number of surviving”, “load” for “colonies”, “liver” for “kidney”, “10” for “5”, “(reference value: 7.16 log10CFU/g)” for “relative to control”; type: functional; settings: time 2 day
Staphylococcus aureus [11] = experiment: as §1, with “pathological damages” for “number of surviving bacterial colonies”, “liver” for “kidney”, “5 to 10” for “5”, “by H and E staining based analysis” for “relative to control”; type: functional, organism-based; settings: dose 5-10 mg/kg, time 2.0 day
Staphylococcus aureus [12] = experiment: as §1, with “liver” for “kidney”, “10” for “5”; type: functional; settings: time 2 day
Staphylococcus aureus [13] = experiment: Selectivity ratio of MBC for bactericidal activity against methicillin-resistant Staphylococcus aureus ATCC 43300 preincubated with 50% human plasma upto 6 hrs to MBC for bactericidal activity against methicillin-resistant Staphylococcus aureus ATCC 43300; type: functional
Staphylococcus aureus [14] = experiment: as §1, with “in” for “in number of surviving”, “load” for “colonies”, “(reference value: 6.75 log10CFU/g)” for “relative to control”; type: functional; settings: time 2 day
Staphylococcus aureus [15] = experiment: Bacteriostatic activity against methicillin-resistant Staphylococcus aureus ATCC 43300 assessed as inhibition of bacterial growth at 1 times of MIC measured after 24 hrs by time-kill kinetic analysis; type: functional, organism-based
Klebsiella pneumoniae = experiment: Antibacterial activity against Klebsiella pneumoniae ATCC 10031; type: functional
Enterococcus faecalis = experiment: Antibacterial activity against vancomycin-susceptible Enterococcus faecalis ATCC 29212; type: functional
Cell membrane [16] = experiment: Induction of cytoplasmic membrane permeabilization in methicillin-resistant Staphylococcus aureus ATCC 43300 assessed as increase fluorescence intensity at 16 microg/ml by PI staining based fluorescence analysis; type: cell membranes; settings: dose 16.0 µg/ml
Staphylococcus aureus [17] = experiment: Bactericidal activity against methicillin-resistant Staphylococcus aureus ATCC 43300 assessed as bacterial killing at 16 microg/ml measured after 4 hrs by time-kill kinetics analysis relative to control; type: functional; settings: dose 16 µg/ml
Escherichia coli = experiment: Antibacterial activity against penicillin-susceptible Escherichia coli ATCC 25922; type: functional
Staphylococcus aureus [18] = experiment: as §1, with “in” for “in number of surviving”, “load” for “colonies”, “spleen” for “kidney”, “(reference value: 7.45 log10CFU/g)” for “relative to control”; type: functional; settings: time 2 day
Cell membrane [19] = experiment: Induction of cytoplasmic membrane depolarization in methicillin-resistant Staphylococcus aureus ATCC 43300 assessed as fold increase in fluorescence intensity at 16 microg/ml measured within 20 min by DiSC3(5) dye-based fluorescence assay; type: cell membranes; settings: dose 16.0 µg/ml
Staphylococcus aureus [20] = experiment: as §1, with “spleen” for “kidney”, “10” for “5”; type: functional; settings: time 2 day
Staphylococcus aureus [21] = experiment: Induction of ROS production in methicillin-resistant Staphylococcus aureus ATCC 43300 assessed as fold increase in ROS level at 32 microg/ml by DCFH-DA staining based analysis; settings: dose 32 µg/ml
Staphylococcus aureus [22] = experiment: as §1, with “pathological damages” for “number of surviving bacterial colonies”, “5 to 10” for “5”, “by H and E staining based analysis” for “relative to control”; type: functional, organism-based; settings: dose 5-10 mg/kg, time 2.0 day
Staphylococcus aureus [23] = experiment: as §1, with “in” for “in number of surviving”, “load” for “colonies”, “liver” for “kidney”, “(reference value: 7.16 log10CFU/g)” for “relative to control”; type: functional; settings: time 2 day
Staphylococcus aureus [24] = experiment: Antibacterial activity against methicillin-resistant Staphylococcus aureus ATCC 43300 infected in sepsis mouse model assessed as decrease in IL-6 level in blood at 5 to 10 mg/kg pre-infected with bacteria for 1 hrs followed by continuous compound administration at 12 hrs intervals for 2 days; type: functional, organism-based; settings: dose 5-10 mg/kg, time 2.0 day
Cell membrane [25] = experiment: Disruption of cell membrane integrity in methicillin-resistant Staphylococcus aureus ATCC 43300 assessed as appearance of blue fluorescence by DAPI/PI staining based microscopic analysis; type: cell membranes
Staphylococcus aureus [26] = experiment: as §1, with “in” for “in number of surviving”, “load” for “colonies”, “10” for “5”, “(reference value: 6.75 log10CFU/g)” for “relative to control”; type: functional; settings: time 2 day
Staphylococcus aureus [27] = experiment: Inhibition of biofilm formation in methicillin-resistant Staphylococcus aureus ATCC 43300 at 2 microg/ml relative to control; type: functional
Staphylococcus aureus [28] = experiment: as §1, with “blood” for “kidney”, “10” for “5”; type: functional; settings: time 2 day
Staphylococcus aureus [29] = experiment: as §1, with “spleen” for “kidney”; type: functional; settings: time 2 day
Staphylococcus aureus [30] = experiment: Bactericidal activity against methicillin-resistant Staphylococcus aureus ATCC 43300 in presence of 50% human blood by Mueller Hinton broth based assay; type: functional; settings: ATCC 43300, Blood, time <= 6 hrs
Staphylococcus aureus [31] = experiment: Bactericidal activity against methicillin-resistant Staphylococcus aureus ATCC 43300 assessed as log reduction in bacterial growth at 16 microg/ml measured after 4 hrs by time-kill kinetics analysis; type: functional; settings: dose 16 µg/ml
Cell membrane [32] = experiment: Disruption of cell membrane integrity in methicillin-resistant Staphylococcus aureus ATCC 43300 assessed as appearance of red fluorescence by DAPI/PI staning based microscopic analysis; type: cell membranes
[33] = Hemolytic activity in sheep RBC; type: toxicity, cell-based, Ovis aries, Erythrocyte; settings: sheep red blood cells (erythrocytes)

CCCCN(CCCC)CCCNCCCOc1c(C(C)=O)ccc2c1C=CC(C)(CCC=C(C)C)O2 (configuration not stated)
Activity (Staphylococcus aureus [1]): 99.2% | Activity (Staphylococcus aureus [2]): 1.1 log10CFU/ml | Activity (Cell membrane [3]): inactive | MIC (Pseudomonas aeruginosa): 32 µg/mL (≈ 62.4 µM) | Activity (Staphylococcus aureus [4]): 98.9% | inhibition at 16 µg/mL (Staphylococcus aureus [5]): > 92% | MIC [6]: 1 µg/mL (≈ 1.95 µM) | Activity (Cell membrane [7]): Active | Activity (Cell membrane [8]): Active | Activity (Staphylococcus aureus [9]): 100% | Activity (Staphylococcus aureus [10]): 2.69 log10CFU/g | Activity (Staphylococcus aureus [11]): Active | Activity (Staphylococcus aureus [12]): 99.8% | selectivity ratio (Staphylococcus aureus [13]): <2 | Activity (Staphylococcus aureus [14]): 2.09 log10CFU/g | Activity (Staphylococcus aureus [15]): Active | MIC (Klebsiella pneumoniae): 4 µg/mL (≈ 7.8 µM) | MIC (Enterococcus faecalis): 4 µg/mL (≈ 7.8 µM) | Activity (Cell membrane [16]): Active | Activity (Staphylococcus aureus [17]): >=99.9% | MIC (Escherichia coli): 4 µg/mL (≈ 7.8 µM) | Activity (Staphylococcus aureus [18]): 2 log10CFU/g | fold change (FC) (Cell membrane [19]): 15 | Activity (Staphylococcus aureus [20]): 99.4% | fold change (FC) (Staphylococcus aureus [21]): 5 | Activity (Staphylococcus aureus [22]): Active | Activity (Staphylococcus aureus [23]): 1.98 log10CFU/g | Activity (Staphylococcus aureus [24]): Active | Activity (Cell membrane [25]): Active | Activity (Staphylococcus aureus [26]): 2.84 log10CFU/g | inhibition at 2 µg/mL (Staphylococcus aureus [27]): 8.46% | Activity (Staphylococcus aureus [28]): 95.9% | Activity (Staphylococcus aureus [29]): 99% | MBC (Staphylococcus aureus [30]): 32 µg/mL | log(activity) (Staphylococcus aureus [31]): 8.35 | Activity (Cell membrane [32]): Active | HC50 [33]: 131 µg/mL
